Columns and labels:
[1] = test system: Boophilus microplus; test: Boophilus microplus test (BOOPMI injection), Example 1; format: in vivo; settings: application rate 20 μg/animal, injected into abdomen, after 7 days
Experimental: Boophilus microplus Test (BOOPMI Injection) • Solvent: dimethyl sulphoxide To prepare an active ingredient formulation, 10 mg of active ingredient are mixed with 0.5 ml of solvent and the concentrate is diluted with water to the desired concentration. The active ingredient solution was injected into the abdomen (Boophilus microplus), and the animals were transferred to dishes and stored in a climate-controlled room. The efficacy was assessed by the number of fertile eggs laid. After 7 days, the efficacy in % is determined. 100% means that no tick laid fertile eggs.

[2] = test system: Lucilia cuprina larvae; test: Lucilia cuprina test (LUCICU), Example 13; format: in vivo; settings: application rate 100 ppm, treated horsemeat, after 2 days
Experimental: Lucilia cuprina Test (LUCICU) • Solvent: dimethyl sulphoxide To prepare an appropriate active ingredient formulation, 10 mg of active ingredient are mixed with 0.5 ml of dimethyl sulphoxide, and the concentrate is diluted with water to the desired concentration. Vessels containing horsemeat which has been treated with the active ingredient formulation of the desired concentration are populated with about 20 Lucilia cuprina larvae. After 2 days, the kill rate in % is determined. 100% means that all larvae were killed; 0% means that no larvae were killed.

[3] = test system: Ctenocephalides felis; test: Ctenocephalides felis oral (CTECFE), Example 2; format: in vivo; settings: application rate 20 ppm in citrated cow's blood, after 2 days
Experimental: Ctenocephalides felis Oral ([…]) • Solvent: 1 part by weight of dimethyl sulphoxide For the purpose of preparing an active ingredient formulation, 10 mg of active ingredient are mixed with 0.5 ml of dimethyl sulphoxide. A portion of the concentrate was diluted with citrated cow's blood and the desired concentration was prepared. 20 unfed adult fleas (Ctenocephalides felis) are placed into a chamber sealed at the top and bottom with gauze. A metal cylinder with its lower end sealed with Parafilm is placed onto the chamber. The cylinder contains the blood-active ingredient preparation, which can be consumed by the fleas through the Parafilm membrane. After 2 days, the kill rate in % is determined. 100% means that all fleas were killed; 0% means that no fleas were killed.

[4] = test system: mustard beetle (Phaedon cochleariae); test: Phaedon test (PHAECO spray treatment), Example 7; format: in vivo; settings: application rate 20 g/ha, china cabbage leaf discs sprayed, after 7 days
Procedure, shortened: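 Spray formulation (acetone/DMF with alkylaryl polyglycol ether, diluted in emulsifier-containing water) applied to Chinese cabbage leaf discs, which were dried and then stocked with mustard beetle larvae. Efficacy scored at 7 days as % larvae killed (100% all, 0% none).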

[5] = logP by HPLC on reverse-phase column (EEC Directive 79/831 Annex V.A8); format: physicochemical; settings: HPLC-MS
Experimental: The logP values reported in the above Tables and Preparation Examples were determined according to EEC Directive 79/831 Annex V.A8 by HPLC (High Performance Liquid Chromatography) on a reverse-phase column (C18). Temperature 43° C.

[6] = test system: red spider mite (Tetranychus urticae); test: Tetranychus test, OP-resistant (TETRUR spray treatment), Example 8; format: in vivo; settings: application rate 20 g/ha, common bean leaf discs sprayed, after 6 days
Procedure, shortened: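 Bean (Phaseolus vulgaris) leaf discs carrying all stages of OP-resistant Tetranychus urticae sprayed with compound in acetone/DMF with emulsifier, diluted in water to the test concentration. Mortality scored after 6 days as % efficacy (100% = all mites killed).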

[7] = test system: Boophilus microplus; test: Boophilus microplus test (BOOPMI injection), Example 11; format: in vivo; settings: application rate 20 μg/animal, injected into abdomen, after 7 days
Procedure, shortened: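 Adult ticks injected in the abdomen with compound diluted in DMSO, then held in a climate-controlled room. Efficacy in % determined after 7 days from fertile eggs laid; 100% means no tick laid fertile eggs.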

[8] = test system: green peach aphid (Myzus persicae); test: Myzus test (MYZUPE spray treatment), Example 17; format: in vivo; settings: china cabbage leaf discs sprayed, after 6 days
Procedure, shortened: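 Chinese cabbage leaf discs infested with all aphid stages were sprayed with compound formulated in acetone/dimethylformamide plus alkylaryl polyglycol ether emulsifier, diluted in emulsifier-containing water. Mortality read after 6 days as % efficacy (100% all killed, 0% none killed).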

[9] = test system: Musca domestica adults; test: Musca domestica test (MUSCDO), Example 14; format: in vivo; settings: application rate 100 ppm, treated sponge, after 2 days
Experimental: Musca domestica Test (MUSCDO) • Solvent: dimethyl sulphoxide To prepare an appropriate active ingredient formulation, 10 mg of active ingredient are mixed with 0.5 ml of dimethyl sulphoxide, and the concentrate is diluted with water to the desired concentration. Vessels containing a sponge which has been treated with the active ingredient formulation of the desired concentration are populated with Musca domestica adults. After 2 days, the kill rate in % is determined. 100% means that all flies were killed; 0% means that no flies were killed.

[10] = test system: armyworm (Spodoptera frugiperda); test: Spodoptera frugiperda test (SPODFR spray treatment), Example 15; format: in vivo; settings: maize leaf discs sprayed, after 7 days
Procedure, shortened: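 Maize leaf discs sprayed with active ingredient in acetone/DMF with alkylaryl polyglycol ether emulsifier, diluted in water, then populated with caterpillars after drying. Efficacy in % after 7 days: 100% all caterpillars killed, 0% none.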

[11] = test system: Lucilia cuprina larvae; test: Lucilia cuprina test (LUCICU), Example 3; format: in vivo; settings: application rate 20 ppm, treated horsemeat, after 2 days
Experimental: Lucilia cuprina Test (LUCICU) • Solvent: dimethyl sulphoxide To prepare an active ingredient formulation, 10 mg of active ingredient are mixed with 0.5 ml of dimethyl sulphoxide, and the concentrate is diluted with water to the desired concentration. Vessels containing horsemeat which has been treated with the active ingredient formulation of the desired concentration are populated with Lucilia cuprina larvae. After 2 days, the kill rate in % is determined. 100% means that all larvae were killed; 0% means that no larvae were killed.

For O=C(/C=C/c1ccc(C(=O)NCc2ccc(F)cn2)c(C(F)(F)F)c1)NC(c1cccc(C(F)(F)F)c1)C(F)(F)F (centres unmarked) [Ia-73], the “efficacy in % (fertile eggs laid)” value [1] was 100%, the “kill rate in % (efficacy)” value [2] was 80% and the “kill rate in % (efficacy)” value [3] was 95%. The efficacy in % [4] was 100%, the logP [5] was “HPLC-MS: logP = 3.31; mass” and the efficacy in % [6] was 100%. For the same compound, the “efficacy in % (fertile eggs laid)” value [7] was 100%.

For NC(=O)c1ccc(/C=C/C(=O)NC(c2cccc(C(F)(F)F)c2)C(F)(F)F)cc1C(F)(F)F (centres unmarked) [Ia-142], the “kill rate in % (efficacy)” value [2] was 90%, the efficacy in % ([8]; application rate 100 g/ha) was 100% and the logP [5] was “HPLC-MS: logP = 2.89; mass”. The “kill rate in % (efficacy)” value [9] was 90% and the “efficacy in % (fertile eggs laid)” value [7] was 100%.

With CNC(=O)c1ccc(/C=C/C(=O)NC(c2cccc(C(F)(F)F)c2)C(F)(F)F)cc1C(F)(F)F (centres unmarked) [Ia-147] the “kill rate in % (efficacy)” value [2] was 80%, the logP [5] was “HPLC-MS: logP = 3.09; mass” and the efficacy in % ([10]; application rate 100 g/ha) was 100%. The “efficacy in % (fertile eggs laid)” value [7] was 100%.

For CC(NC(=O)c1ccc(/C=C/C(=O)NC(c2cccc(C(F)(F)F)c2)C(F)(F)F)cc1C(F)(F)F)c1ccccn1 (centres unmarked) [Ia-128], the “kill rate in % (efficacy)” value [2] was 90%, the logP [5] was “HPLC-MS: logP = 3.22; mass” and the “efficacy in % (fertile eggs laid)” value [7] was 100%.

With O=C(/C=C/c1ccc(C(=O)NC2CC2)c(C(F)(F)F)c1)NC(c1cc(Cl)cc(Cl)c1)C(F)(F)F (centres unmarked) [Ia-24] the “efficacy in % (fertile eggs laid)” value [1] was 100%, the “kill rate in % (efficacy)” value [11] was 80% and the “kill rate in % (efficacy)” value [3] was 100%. For the same compound, the logP [5] was “HPLC-MS: logP = 3.5; mass” and the “efficacy in % (fertile eggs laid)” value [7] was 100%.

With CC(NC(=O)c1ccc(/C=C/C(=O)NC(c2c(F)cccc2F)C(F)(F)F)cc1C(F)(F)F)C(F)(F)F (centres unmarked) [Ia-29] the “efficacy in % (fertile eggs laid)” value [1] was 100%, the “kill rate in % (efficacy)” value [2] was 80% and the logP [5] was “HPLC-MS: logP = 3.41; mass”. For the same compound, the “efficacy in % (fertile eggs laid)” value [7] was 100%.

In the case of O=C(/C=C/c1ccc(C(=O)NCc2ccccn2)c(C(F)(F)F)c1)NC(c1ccc(Cl)c(Cl)c1)C(F)(F)F (centres unmarked) [Ia-32], the “efficacy in % (fertile eggs laid)” value [1] is reported as 100%, the “kill rate in % (efficacy)” value [3] is reported as 100% and the logP [5] is reported as “HPLC-MS: logP = 2.98; mass”. The efficacy in % ([10]; application rate 500 g/ha) was 83% and the “efficacy in % (fertile eggs laid)” value [7] was 100%.

In the case of CC(Cn1cccn1)NC(=O)c1ccc(/C=C/C(=O)NC(c2cccc(C(F)(F)F)c2)C(F)(F)F)cc1C(F)(F)F (centres unmarked) [Ia-139], the “kill rate in % (efficacy)” value [2] is reported as 80%, the logP [5] is reported as “HPLC-MS: logP = 3.42; mass” and the “efficacy in % (fertile eggs laid)” value [7] is reported as 100%.

In the case of O=C(/C=C/c1ccc(C(=O)NC2COC2)c(Br)c1)NC(c1cccc(C(F)(F)F)c1)C(F)(F)F (centres unmarked) [Ia-94], the “kill rate in % (efficacy)” value [2] is reported as 95%, the efficacy in % [4] is reported as 100% and the logP [5] is reported as “HPLC-MS: logP = 2.8 mass”. For the same compound, the efficacy in % [6] was 80% and the “efficacy in % (fertile eggs laid)” value [7] was 100%.

In the case of O=C(/C=C/c1ccc(C(=O)NCc2ccccc2)c(C(F)(F)F)c1)NC(c1cccc(C(F)(F)F)c1)C(F)(F)F (centres unmarked) [Ia-31], the “efficacy in % (fertile eggs laid)” value [1] is reported as 100%, the “kill rate in % (efficacy)” value [2] is reported as 90% and the “kill rate in % (efficacy)” value [3] is reported as 95%. For the same compound, the logP [5] was “HPLC-MS: logP = 3.68; mass” and the “efficacy in % (fertile eggs laid)” value [7] was 100%.

For O=C(/C=C/c1ccc(C(=O)NCc2ccc(Cl)nc2)c(C(F)(F)F)c1)NC(c1cccc(C(F)(F)F)c1)C(F)(F)F (centres unmarked) [Ia-80], the “efficacy in % (fertile eggs laid)” value [1] was 100%, the “kill rate in % (efficacy)” value [2] was 80% and the “kill rate in % (efficacy)” value [3] was 100%. The efficacy in % [4] was 100%, the logP [5] was “HPLC-MS: logP = 3.65; mass” and the “efficacy in % (fertile eggs laid)” value [7] was 100%.

In the case of O=C(/C=C/c1ccc(C(=O)NC2CC2)c(Cl)c1)NC(c1cccc(C(F)(F)F)c1)C(F)(F)F (centres unmarked) [Ia-43], the “efficacy in % (fertile eggs laid)” value [1] is reported as 100%, the “kill rate in % (efficacy)” value [11] is reported as 100% and the “kill rate in % (efficacy)” value [3] is reported as 100%. The efficacy in % [4] was 100%, the efficacy in % ([8]; application rate 500 g/ha) was 80% and the logP [5] was “HPLC-MS: logP = 3.22; mass”. For the same compound, the “efficacy in % (fertile eggs laid)” value [7] was 100%.

With O=C(/C=C/c1ccc(C(=O)NC2CSC2)c(Cl)c1)NC(c1cccc(C(F)(F)F)c1)C(F)(F)F (centres unmarked) [Ia-152] the “kill rate in % (efficacy)” value [2] was 90%, the efficacy in % ([8]; application rate 100 g/ha) was 80% and the logP [5] was “HPLC-MS: logP = 3.51; mass”. For the same compound, the “efficacy in % (fertile eggs laid)” value [7] was 100%.

In the case of CC(NC(=O)c1ccc(/C=C/C(=O)NC(c2cccc(C(F)(F)F)c2)C(F)(F)F)cc1Br)c1ccccn1 (centres unmarked) [Ia-134], the “kill rate in % (efficacy)” value [2] is reported as 90%, the logP [5] is reported as “HPLC-MS: logP = 3.11; mass” and the “efficacy in % (fertile eggs laid)” value [7] is reported as 100%.

For COCCNC(=O)c1ccc(/C=C/C(=O)NC(c2cccc(C(F)(F)F)c2)C(F)(F)F)cc1C(F)(F)F (centres unmarked) [Ia-58], the “efficacy in % (fertile eggs laid)” value [1] was 100%, the “kill rate in % (efficacy)” value [3] was 98% and the efficacy in % [4] was 100%. The efficacy in % ([8]; application rate 500 g/ha) was 100%, the logP [5] was “HPLC-MS: logP = 3.12; mass” and the efficacy in % [6] was 90%. The efficacy in % ([10]; application rate 500 g/ha) was 83% and the “efficacy in % (fertile eggs laid)” value [7] was 100%.

For Cc1cc(/C=C/C(=O)NC(c2cccc(C(F)(F)F)c2)C(F)(F)F)ccc1C(=O)NCc1ccccn1 (centres unmarked) [Ia-22], the “efficacy in % (fertile eggs laid)” value [1] was 100%, the “kill rate in % (efficacy)” value [11] was 90% and the “kill rate in % (efficacy)” value [3] was 100%. For the same compound, the efficacy in % [4] was 100%, the efficacy in % ([8]; application rate 500 g/ha) was 100% and the logP [5] was “HPLC-MS: logP = 2.65; mass”. The “efficacy in % (fertile eggs laid)” value [7] was 100%.

In the case of O=C(/C=C/c1ccc(C(=O)NC2CC2)c(Br)c1)NC(c1cccc(C(F)(F)F)c1)C(F)(F)F (centres unmarked) [Ia-42], the “efficacy in % (fertile eggs laid)” value [1] is reported as 100%, the “kill rate in % (efficacy)” value [11] is reported as 100% and the “kill rate in % (efficacy)” value [3] is reported as 100%. For the same compound, the logP [5] was “HPLC-MS: logP = 3.23; mass” and the “efficacy in % (fertile eggs laid)” value [7] was 100%.

From US8889878B2, “Haloalky-substituted amides as insecticides and acaricides” (Bayer CropScience AG, priority 2009, dated 2014)
